According to patent US9649313B2, “Use of ITK inhibitors for the treatment of cancer” (The University of North Carolina at Chapel Hill, priority 2012, dated 2017):

Legend:
JNK2 = molecular target: T1, JNK2 (Homo sapiens, UniProt P45984); test: cell-free kinase assay; assay type: biochemical; conditions: single inhibitor concentration
T1 construct: purchased Carna Biosciences
Excerpt: (§1) We investigated the potency and selectivity of BI 10N against 56 kinases using a cell-free assay (Table 8A).
(§2) The selectivity of this inhibitor was investigated by testing the potency of the inhibitor at two concentrations with 53 kinases by Carna Biosciences (MA) (Table 2).

PAK2 = molecular target: T2, PAK2 (Homo sapiens, UniProt Q13177); test: cell-free kinase assay; assay type: biochemical; conditions: single inhibitor concentration
T2 construct: purchased Carna Biosciences
Excerpt: as §1, §2

p38α = molecular target: T3, p38α (Homo sapiens, UniProt Q16539); test: cell-free kinase assay; assay type: biochemical; conditions: single inhibitor concentration
T3 construct: purchased Carna Biosciences
Excerpt: as §1, §2

GSK3β = molecular target: T4, GSK3β (Homo sapiens, UniProt P49841); test: cell-free kinase assay; assay type: biochemical; conditions: single inhibitor concentration
T4 construct: purchased Carna Biosciences
Excerpt: as §1, §2

DYRK1B = molecular target: T5, DYRK1B (Homo sapiens, UniProt Q9Y463); test: cell-free kinase assay; assay type: biochemical; conditions: single inhibitor concentration
T5 construct: purchased Carna Biosciences
Excerpt: as §1, §2

PDGFRα = molecular target: T6, PDGFRα (Homo sapiens, UniProt P16234); test: cell-free kinase assay; assay type: biochemical
T6 construct: purchased Carna Biosciences
Excerpt: as §1, §2

AMPKα1/β1/γ1 = molecular target: T7, AMPKα1/β1/γ1 (Homo sapiens, UniProt Q13131); test: cell-free kinase assay; assay type: biochemical; conditions: single inhibitor concentration
T7 construct: purchased Carna Biosciences
Excerpt: as §1, §2

SYK = molecular target: T8, SYK (Homo sapiens, UniProt P43405); test: cell-free kinase assay; assay type: biochemical; conditions: single inhibitor concentration
T8 construct: purchased Carna Biosciences
Excerpt: as §1, §2

PKD2 = molecular target: T9, PKD2 (Homo sapiens, UniProt Q9BZL6); test: cell-free kinase assay; assay type: biochemical; conditions: single inhibitor concentration
T9 construct: purchased Carna Biosciences
Excerpt: as §1, §2

MET = molecular target: T10, MET (Homo sapiens, UniProt P08581); test: cell-free kinase assay; assay type: biochemical; conditions: single inhibitor concentration
T10 construct: purchased Carna Biosciences
Excerpt: as §1, §2

IRAK4 = molecular target: T11, IRAK4 (Homo sapiens, UniProt Q9NWZ3); test: cell-free kinase assay; assay type: biochemical
T11 construct: purchased Carna Biosciences
Excerpt: as §1, §2

EGFR = molecular target: T12, EGFR (Homo sapiens, UniProt P00533); test: cell-free kinase assay; assay type: biochemical; conditions: single inhibitor concentration
T12 construct: purchased Carna Biosciences
Excerpt: as §1, §2

CaMK4 = molecular target: T13, CaMK4 (Homo sapiens, UniProt Q16566); test: cell-free kinase assay; assay type: biochemical; conditions: single inhibitor concentration
T13 construct: purchased Carna Biosciences
Excerpt: as §1, §2

TRKA = molecular target: T14, TRKA (Homo sapiens, UniProt P04629); test: cell-free kinase assay; assay type: biochemical
T14 construct: purchased Carna Biosciences
Excerpt: We investigated the potency and selectivity of BI 10N against 56 kinases using a cell-free assay (Table 8A). […] The selectivity of this inhibitor was investigated by testing the potency of the inhibitor at two concentrations with 53 kinases by Carna Biosciences (MA) (Table 2).

[1] = system: RPMI 8322 (ITKHI) cell line; test: soft agar assay (anchorage independent growth); assay type: cell-based, Human
Description: (§3) FIG. 5A-5C. Effects of BI 10N inhibitor on proliferation and motility of melanoma cells. FIG. 5A) Cell motility assays were performed as described in FIG. 4A-4E; however, the inhibitor BI 10N was added to the media to decrease ITK kinase activity in parental cell lines instead of using the shRNA ITK knockdown cell lines. BI 10N was added to the media 24 hours prior to the start of the motility assay and the VivaView camera system was used to image cellular motility of the melanoma cells as described previously. FIG. 5B) The proliferation assays were completed as described in FIG. 4A-4E, substituting the BI 10N compound for the shRNA. Cells were trypsinized and counted using the Invitrogen Countess. Fifty thousand cells were placed into each well of a 6 well plate and BI 10N was added to the indicated concentrations. The cells were counted with the Invitrogen Countess at 3, 5, and 6 or 7 days after plating to assess the proliferation rates of the different cell lines in the presence of BI 10N. FIG. 5C) Both ITKHI (RPMI 8322) and ITKLO (PMWK) melanoma cell lines were grown in the presence of BI 10N (10-200 nM) in soft agar. In 24-well cell culture plates 2,500 cells per well were added to a 1.4% agarose solution. The agarose and cell solution was then poured on top of a solidified base agar. The cells were incubated at 37° C. for three to four weeks to ensure adequate growth before analysis. FIG. 5D) Cell cycle analysis of PMWK, VMM 39, and RPMI 8322 cells that have been treated with increasing concentrations of BI 10N. Following 3 days of BI 10N treatment, the cells were incubated with EdU for 3 hours and were subsequently assessed for 5-ethynyl-2′-deoxyuridine (EdU) incorporation rate and DNA content with FxCycle Violet. Shown in this panel are the percentages of cells in G0/G1 (low DNA and EdU content), S (high EdU and low-to-medium DNA content), and G2/M (Low EdU and high DNA content)
(§4) Soft agar assays were performed employing the RPMI 8322, VMM 39, PMWK, and A375 cell lines. In 24-well cell culture plates (BD Falcon), a 2.0% base agar solution in the appropriate cell line media was poured and allowed to solidify. Tissue culture cells were then trypsinized from their flask, counted using the Countess® Automated Cell Counter, and 2,500 cells per well were added to a 1.4% agarose solution then poured on top of the solidified base agar. Each of the […] layers in the culture plate wells contained BI 10N in the indicated concentrations. The cells were incubated at 37° C. for three to four weeks to ensure adequate growth. 3-(4,5-dimethylthiazol-2-yl)-2,5-diphenyltetrazolium bromide (MTT) was then added in order to perform colony counts using Image J photo processing software.

PMWK (ITKLO) cell line = test: soft agar assay (anchorage independent growth); assay type: cell-based, Human
Description: as §3, §4

[2] = Homo sapiens, 672 h, three to four weeks, read-out: amount needed to decrease the number of colonies formed by 50%

T14 sequence (P04629 33-796): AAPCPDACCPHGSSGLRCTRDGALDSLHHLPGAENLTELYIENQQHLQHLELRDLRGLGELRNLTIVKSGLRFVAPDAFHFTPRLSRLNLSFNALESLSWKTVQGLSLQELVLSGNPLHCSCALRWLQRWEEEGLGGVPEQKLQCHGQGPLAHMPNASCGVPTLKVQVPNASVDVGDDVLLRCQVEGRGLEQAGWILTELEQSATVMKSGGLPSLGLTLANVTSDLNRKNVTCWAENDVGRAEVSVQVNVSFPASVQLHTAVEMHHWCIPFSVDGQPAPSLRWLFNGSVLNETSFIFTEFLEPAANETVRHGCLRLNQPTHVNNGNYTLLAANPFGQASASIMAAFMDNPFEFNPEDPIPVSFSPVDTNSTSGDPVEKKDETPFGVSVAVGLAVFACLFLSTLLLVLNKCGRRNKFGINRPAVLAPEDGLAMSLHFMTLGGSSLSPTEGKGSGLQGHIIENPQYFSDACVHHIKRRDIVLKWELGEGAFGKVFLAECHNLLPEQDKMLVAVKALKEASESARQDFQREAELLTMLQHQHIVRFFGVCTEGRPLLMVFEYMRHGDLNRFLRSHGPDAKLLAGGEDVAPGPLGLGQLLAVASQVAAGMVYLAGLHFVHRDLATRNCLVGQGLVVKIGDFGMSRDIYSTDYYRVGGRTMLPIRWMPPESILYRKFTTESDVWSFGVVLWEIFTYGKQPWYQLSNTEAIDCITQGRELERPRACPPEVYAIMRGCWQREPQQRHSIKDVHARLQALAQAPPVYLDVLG
T6 sequence (P16234 24-1089): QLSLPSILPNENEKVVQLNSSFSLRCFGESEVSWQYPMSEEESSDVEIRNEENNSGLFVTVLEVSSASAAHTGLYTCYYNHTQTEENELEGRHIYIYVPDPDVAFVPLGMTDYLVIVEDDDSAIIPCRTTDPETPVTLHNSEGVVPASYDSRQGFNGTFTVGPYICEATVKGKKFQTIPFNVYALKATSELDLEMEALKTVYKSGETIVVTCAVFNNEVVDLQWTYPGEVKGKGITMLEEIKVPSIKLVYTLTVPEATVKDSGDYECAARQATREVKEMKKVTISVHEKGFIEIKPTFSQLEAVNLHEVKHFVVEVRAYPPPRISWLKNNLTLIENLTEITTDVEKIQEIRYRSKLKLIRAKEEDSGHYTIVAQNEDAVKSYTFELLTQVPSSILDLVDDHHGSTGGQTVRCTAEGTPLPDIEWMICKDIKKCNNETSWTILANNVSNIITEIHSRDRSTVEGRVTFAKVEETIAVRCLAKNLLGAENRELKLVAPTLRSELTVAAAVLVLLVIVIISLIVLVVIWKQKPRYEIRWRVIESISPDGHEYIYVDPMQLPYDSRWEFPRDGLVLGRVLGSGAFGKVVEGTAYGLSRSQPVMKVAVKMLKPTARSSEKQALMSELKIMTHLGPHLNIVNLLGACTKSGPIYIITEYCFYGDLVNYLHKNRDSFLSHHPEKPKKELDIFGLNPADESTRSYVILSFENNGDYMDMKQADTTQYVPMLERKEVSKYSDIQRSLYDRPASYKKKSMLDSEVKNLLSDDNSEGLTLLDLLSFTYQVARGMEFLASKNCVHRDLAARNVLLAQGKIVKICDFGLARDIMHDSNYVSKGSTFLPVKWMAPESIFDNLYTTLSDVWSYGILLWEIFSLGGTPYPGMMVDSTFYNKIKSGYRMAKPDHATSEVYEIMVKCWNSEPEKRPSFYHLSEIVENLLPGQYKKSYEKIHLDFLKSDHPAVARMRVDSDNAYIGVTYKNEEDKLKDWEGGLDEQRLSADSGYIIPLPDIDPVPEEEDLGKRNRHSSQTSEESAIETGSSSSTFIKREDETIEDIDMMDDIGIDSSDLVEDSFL
T11 sequence (Q9NWZ3 whole entry): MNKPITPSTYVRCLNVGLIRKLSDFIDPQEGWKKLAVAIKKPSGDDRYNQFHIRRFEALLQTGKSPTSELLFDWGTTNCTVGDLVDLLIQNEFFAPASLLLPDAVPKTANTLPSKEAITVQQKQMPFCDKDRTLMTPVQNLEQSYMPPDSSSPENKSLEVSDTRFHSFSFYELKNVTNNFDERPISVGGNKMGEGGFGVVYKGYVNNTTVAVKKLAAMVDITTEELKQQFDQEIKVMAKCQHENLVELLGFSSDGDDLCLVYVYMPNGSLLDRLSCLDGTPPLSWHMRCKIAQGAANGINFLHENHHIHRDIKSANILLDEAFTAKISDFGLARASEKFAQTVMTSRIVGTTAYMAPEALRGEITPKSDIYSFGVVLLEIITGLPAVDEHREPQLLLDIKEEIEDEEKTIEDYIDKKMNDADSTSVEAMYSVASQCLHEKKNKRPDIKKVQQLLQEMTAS
T12 sequence (P00533 25-1210): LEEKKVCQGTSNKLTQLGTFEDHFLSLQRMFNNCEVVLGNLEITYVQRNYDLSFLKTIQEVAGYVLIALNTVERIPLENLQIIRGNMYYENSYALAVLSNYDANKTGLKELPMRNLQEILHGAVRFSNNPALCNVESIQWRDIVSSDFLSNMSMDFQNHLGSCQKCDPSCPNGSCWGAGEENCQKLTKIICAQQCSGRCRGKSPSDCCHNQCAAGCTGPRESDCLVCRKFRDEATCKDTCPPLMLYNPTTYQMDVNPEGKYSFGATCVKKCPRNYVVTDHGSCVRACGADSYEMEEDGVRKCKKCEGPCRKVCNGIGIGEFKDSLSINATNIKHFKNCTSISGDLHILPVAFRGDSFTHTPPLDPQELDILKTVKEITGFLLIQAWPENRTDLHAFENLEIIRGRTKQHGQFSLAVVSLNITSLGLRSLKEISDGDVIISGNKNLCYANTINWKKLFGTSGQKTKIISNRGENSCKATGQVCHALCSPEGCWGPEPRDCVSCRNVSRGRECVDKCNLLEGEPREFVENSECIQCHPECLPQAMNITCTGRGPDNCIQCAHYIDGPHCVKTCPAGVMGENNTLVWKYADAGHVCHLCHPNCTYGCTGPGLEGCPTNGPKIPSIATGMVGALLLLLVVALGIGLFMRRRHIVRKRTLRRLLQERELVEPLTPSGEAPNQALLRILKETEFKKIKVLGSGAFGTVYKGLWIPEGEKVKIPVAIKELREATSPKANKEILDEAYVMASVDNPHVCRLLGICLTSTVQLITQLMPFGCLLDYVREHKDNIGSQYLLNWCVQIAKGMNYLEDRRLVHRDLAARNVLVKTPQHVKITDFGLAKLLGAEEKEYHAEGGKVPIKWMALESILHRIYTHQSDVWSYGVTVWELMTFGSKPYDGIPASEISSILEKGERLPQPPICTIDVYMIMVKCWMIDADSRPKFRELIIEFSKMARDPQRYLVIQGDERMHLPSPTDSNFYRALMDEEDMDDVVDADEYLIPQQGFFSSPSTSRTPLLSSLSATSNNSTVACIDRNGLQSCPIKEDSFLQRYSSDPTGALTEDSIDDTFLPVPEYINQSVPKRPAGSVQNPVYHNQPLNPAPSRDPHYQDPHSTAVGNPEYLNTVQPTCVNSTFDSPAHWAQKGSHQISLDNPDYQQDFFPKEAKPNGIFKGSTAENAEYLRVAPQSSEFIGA
T1 sequence (P45984 whole entry): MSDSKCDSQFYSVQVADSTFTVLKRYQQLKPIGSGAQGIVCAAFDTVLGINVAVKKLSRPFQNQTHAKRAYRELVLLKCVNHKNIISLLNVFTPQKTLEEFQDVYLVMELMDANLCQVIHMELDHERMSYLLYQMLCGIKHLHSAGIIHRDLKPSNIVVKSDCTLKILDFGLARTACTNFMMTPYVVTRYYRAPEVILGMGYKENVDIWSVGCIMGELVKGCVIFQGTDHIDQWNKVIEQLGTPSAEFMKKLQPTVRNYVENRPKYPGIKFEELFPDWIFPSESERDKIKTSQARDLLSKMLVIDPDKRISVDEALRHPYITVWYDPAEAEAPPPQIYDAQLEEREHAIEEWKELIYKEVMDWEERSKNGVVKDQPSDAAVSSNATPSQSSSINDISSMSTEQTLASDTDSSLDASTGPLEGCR
T7 sequence (Q13131 10-559 limits assumed): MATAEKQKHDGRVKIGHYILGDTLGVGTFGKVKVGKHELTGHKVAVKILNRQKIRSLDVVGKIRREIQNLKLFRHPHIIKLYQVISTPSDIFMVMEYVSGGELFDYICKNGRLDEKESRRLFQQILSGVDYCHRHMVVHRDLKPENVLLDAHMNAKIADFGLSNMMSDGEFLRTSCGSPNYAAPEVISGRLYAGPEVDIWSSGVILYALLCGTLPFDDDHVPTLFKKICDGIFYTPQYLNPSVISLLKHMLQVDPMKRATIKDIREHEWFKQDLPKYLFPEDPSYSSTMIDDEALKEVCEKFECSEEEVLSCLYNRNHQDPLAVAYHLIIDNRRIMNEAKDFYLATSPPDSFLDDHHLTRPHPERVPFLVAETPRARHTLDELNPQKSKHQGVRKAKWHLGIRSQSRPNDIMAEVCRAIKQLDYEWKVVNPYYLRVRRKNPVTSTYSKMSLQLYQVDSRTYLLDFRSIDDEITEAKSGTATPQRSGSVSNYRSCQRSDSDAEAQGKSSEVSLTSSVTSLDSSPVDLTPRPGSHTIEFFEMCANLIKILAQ
T7 sequence (Q9Y478 whole entry partner): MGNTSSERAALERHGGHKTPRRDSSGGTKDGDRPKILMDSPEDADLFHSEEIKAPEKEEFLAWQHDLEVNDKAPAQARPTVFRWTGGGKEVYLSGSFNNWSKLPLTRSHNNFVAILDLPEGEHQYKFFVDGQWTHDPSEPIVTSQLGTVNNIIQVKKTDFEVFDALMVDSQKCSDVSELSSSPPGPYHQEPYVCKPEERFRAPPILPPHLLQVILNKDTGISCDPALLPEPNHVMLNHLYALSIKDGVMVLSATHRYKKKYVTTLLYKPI
T7 sequence (P54619 whole entry partner): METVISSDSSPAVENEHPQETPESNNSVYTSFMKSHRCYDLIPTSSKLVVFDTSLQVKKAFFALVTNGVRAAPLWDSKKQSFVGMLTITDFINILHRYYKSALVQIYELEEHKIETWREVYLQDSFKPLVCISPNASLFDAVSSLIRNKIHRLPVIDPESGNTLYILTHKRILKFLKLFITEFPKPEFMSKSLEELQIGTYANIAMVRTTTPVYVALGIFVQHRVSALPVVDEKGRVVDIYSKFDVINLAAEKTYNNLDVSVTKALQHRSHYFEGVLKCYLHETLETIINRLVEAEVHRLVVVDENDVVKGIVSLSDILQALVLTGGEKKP

CC(C)C(C)CNCc1ccc2c(c1)[nH]/c(=N\C(=O)c1ccc(C3=CN=NC3)s1)n2CC(C)(C)O (stereo not shown) [BI 10N]
inhibition at 0.2 µM (JNK2): -0.1%
inhibition at 0.2 µM (PAK2): 4.5%
inhibition at 0.2 µM (p38α): -4.1%
inhibition at 0.2 µM (GSK3β): 31.5%
inhibition at 0.2 µM (DYRK1B): 79.6%
IC50 (PDGFRα; Table 2, by Carna Biosciences): 10.1 nM
inhibition at 0.2 µM (PDGFRα; single inhibitor concentration): 101%
inhibition at 0.2 µM (AMPKα1/β1/γ1): 15.3%
inhibition at 0.2 µM (SYK): 40.6%
inhibition at 0.2 µM (PKD2): 7%
inhibition at 0.2 µM (MET): 4.1%
IC50 (IRAK4; Table 2, by Carna Biosciences): 3.14 nM
inhibition at 0.2 µM (IRAK4; single inhibitor concentration): 105%
inhibition at 0.2 µM (EGFR): 8.6%
inhibition at 0.2 µM (CaMK4): -4.3%
selectivity for ITK over TRKA (TRKA): about 10 fold
mode of inhibition (TRKA; TRKA): time-dependent inhibitor
IC50 (TRKA; TRKA, 1 mM ATP, Km ATP 65 μM): 0.828 nM
IC50 (TRKA; TRKA, ATP at approximately the Km for ATP, more potent than can be measured): < 0.5 nM
IC50 (TRKA; TRKA, Table 2, by Carna Biosciences): 0.459 nM
inhibition at 0.2 µM (TRKA; TRKA, single inhibitor concentration): 106%
anchorage-independent growth [1]: strongly decreased
IC50 [1, 2]: 50 nM
anchorage-independent growth (PMWK (ITKLO) cell line): strongly decreased
IC50 (PMWK (ITKLO) cell line; [2]): 25 nM
